Data from patent publication US20250034182A1, “PHOSPHOLIPID COMPOUNDS AND METHODS OF MAKING AND USING THE SAME” (priority 2021, published 2025).

Assays:
Type in all cases: cell-based
[1] = system: Human Rhinovirus 16 (HRV16) in H1-HeLa cells; experiment: H1-HeLa HRV-CTG EC50, HRV16 (Example Z); conditions: Rhinovirus A, HRV16, 96 h, MOI 0.25, 4 days, Celltiter-Glo, read-out: HRV 16 HELA EC50 (nM) (per Ex. Z)
From the text: (§1) H1-Hela cell line (ATCC, Manassas, VA, Cat #CRL-1958) was maintained in Dulbecco's […] (DMEM) (Corning, New York, NY, Cat #15-018CM) supplemented with 10% fetal bovine serum (FBS) (Hyclone, Logan, UT, Cat #SH30071-03), and 1× Penicillin-Streptomycin-L-Glutamine (Coming, New York, NY, Cat #30-009-C1). Cells were passaged 2 times per week to maintain sub-confluent densities and were used for experiments at passage 5-30. The Human Rhinovirus 1B (HRV1B) (ATCC, Manassas, VA, Cat #VR-1645), Human Rhinovirus 14 (HRV14) (ATCC, Manassas, VA, Cat #VR-284), and Human Rhinovirus 16 (HRV16) (ATCC, Manassas, VA, Cat #BR-283) was obtained through ATCC. Viral infection was monitored by determining viability of H1-HeLa cells as described below.
(§2) Test molecules are prepared in 100% DMSO in 384-well polypropylene plates (Greiner, Monroe, NC, Cat #784201) with 8 compounds per plate in grouped replicates of 4 at 10 serially diluted concentrations (1:3). The serially diluted compounds were transferred to low dead volume Echo plates (Labcyte, Sunnyvale, CA, Cat #LP-0200).
(§3) The test compounds were spotted to 384-well assay plates (Greiner, Monroe, NC, Cat #781091) at 200 nL per well using an Echo acoustic dispenser (Labcyte, Sunnyvale, CA). H1-HeLa cells were harvested and suspended in DMEM (supplemented with 2% FBS and 1× Penicillin-Streptomycin-L-Glutamine) and seeded to the pre-spotted assay plates at 5,000 cells per well in 30 μL. HRV1B, HRV14, and HRV16 was diluted in DMEM (supplemented with 2% FBS and 1× Penicillin-Streptomycin-L-Glutamine) at 97.1 million Infectious Units (IU) per mL, 151 million IU per mL and 221 million IU per mL respectively. 10 μL of virus per well was added to the assay plates containing cells and compounds, for an MOI of 0.5, 1.0, and 0.25 respectively. The assay plates were incubated for 4 days at 37° C. and 5% CO2. At the end of incubation, Celltiter-Glo (Promega, Madison, WI, Cat #G7573) was prepared. The assay plates and Celltiter-Glo reagent were equilibrated to room temperature for at least 15 minutes. 40 μL per well of Celltiter-Glo reagent was added and the plates were incubated at room temperature for 15 minutes before reading the luminescence signal on an EnVision multimode plate reader (Perkin Elmer, Waltham, MA). Rupintrivir was used as positive control and DMSO was used as negative control. Values were normalized to the positive and negative controls (as 0% and 100% replication, respectively) and data was fitted using non-linear regression analysis by Gilead's dose response tool. The EC50 value for each compound was defined as the concentration reducing viral replication by 50%.

[2] = system: Respiratory syncytial virus recombinant with luciferase (RSV-Luc5) in NHBE cells; experiment: NHBE RSV-Luc5 384-well assay (EC50 RSVFLUC NHBE-384, Example U); conditions: human respiratory syncytial virus, 72 h, read-out: RSV FLuc NHBE 384 EC50 (v2) (nM) (per Ex. U)
Procedure: Normal Human Bronchial Epithelial (NHBE) cells were purchased from Lonza (Walkersville, MD Cat #CC2540) and maintained in BEGM Bronchial Epithelial Cell (Growth Medium BulletKit (Lonza CC-3170).
Cells were thawed, expanded, and were used for experiments at passage 2. Respiratory syncytial virus recombinant with luciferase (RSV-Luc5) (≥1×10^7 Infectious Units/ml (IU/ml) determined by TCID50) was purchased from Microbiologics (Saint Cloud, MN). Viral replication was determined in NHBE cells in the following manner.
as §2, with “Compounds” for “Test molecules”
The test compounds were spotted to 384-well assay plates (Greiner, Monroe, NC, Cat #781091) at 200 nL per well. NHBE cells were harvested and suspended in BEGM Bronchial Epithelial Cell Growth Medium BulletKit and seeded to the pre-spotted assay plates at 5,000 cells per well in 30 μL. RSV-Luc5 virus was diluted in BEGM Bronchial Epithelial Cell Growth Medium BulletKit at 500,000 Infectious Units (IU) per mL and 10 μL per well was added to the assay plates containing cells and compounds, for an MOI of 1. The assay plates were incubated for 3 days at 37° C. and 5% CO2. At the end of incubation, One-Glo reagent (Promega, Madison, WI, Cat #E6120) was prepared. The assay plates and One-Glo reagent were equilibrated to room temperature for at least 15 minutes. 40 μL per well of One-Glo reagent was added and the plates were incubated at room temperature for 15 minutes before reading the luminescence signal on an EnVision multimode plate reader (Perkin Elmer, Waltham, MA). Remdesivir was used as positive control and DMSO was used as negative control. Values were normalized to the positive and negative controls (as 0% and 100% replication, respectively) and data was fitted using non-linear regression analysis by Gilead's dose response tool. The EC50 value for each compound was defined as the concentration reducing the viral replication by 50%.

[3] = system: Human Rhinovirus 14 (HRV14) in H1-HeLa cells; experiment: H1-HeLa HRV-CTG EC50, HRV14 (Example Z); conditions: Rhinovirus B, HRV14, 96 h, MOI 1.0, 4 days, Celltiter-Glo, read-out: HRV14 HELA EC50 (nM) (per Ex. Z)
From the text: as §1, §2, §3

Row | Structure (SMILES) | EC50 [1] [nM] | EC50 [2] [nM] | EC50 [3] [nM]
1 | CCCCCCCCCCCCCCCCCCC[C@H](COP(=O)(O)OC[C@@]1(C#N)O[C@@H](c2ccc3c(N)ncnn23)[C@H](O)[C@@H]1O)OCc1ccc(-n2cncn2)c(C#N)c1 [Compound 30, ((2R,3S,4R)-5-(4-aminopyrrolo[2,1-f][1,2,4]triazin-7-yl)-2-cyano-3,4-dihydroxytetrahydrofuran-2-yl)methyl ((R)-2-((3-cyano-4-(1H-1,2,4-triazol-1-yl)benzyl)oxy)henicosyl) hydrogen phosphate] | 11 | 14 | 12
2 | CCCCCCCCCCCCCCCCCCCC[C@@H](COP(=O)(O)OC[C@@]1(C#N)O[C@@H](c2ccc3c(N)ncnn23)[C@H](O)[C@@H]1O)OCc1cc(F)cc(C#N)c1 [Compound 70, ((2R,3S,4R)-5-(4-aminopyrrolo[2,1-f][1,2,4]triazin-7-yl)-2-cyano-3,4-dihydroxytetrahydrofuran-2-yl)methyl ((S)-2-((3-cyano-5-fluorobenzyl)oxy)docosyl) hydrogen phosphate] | 114 | 165 | 162
3 | CCCCCCCCCCCCCCC[C@H](COP(=O)(O)OC[C@@]1(C#N)O[C@@H](c2ccc3c(N)ncnn23)[C@H](O)[C@@H]1O)OCc1cc(F)cc(C#N)c1 [Compound 80, ((2R,3S,4R,5S)-5-(4-aminopyrrolo[2,1-f][1,2,4]triazin-7-yl)-2-cyano-3,4-dihydroxytetrahydrofuran-2-yl)methyl ((R)-2-((3-cyano-5-fluorobenzyl)oxy)heptadecyl) hydrogen phosphate] | 111 | 36 | 88
4 | CCCCCCCCCCCCCCCCCC[C@@H](COP(=O)(O)OC[C@@]1(C#N)O[C@@H](c2ccc3c(N)ncnn23)[C@H](O)[C@@H]1O)OCc1cc(F)cc(C#N)c1 [Compound 37, ((2R,3S,4R)-5-(4-aminopyrrolo[2,1-f][1,2,4]triazin-7-yl)-2-cyano-3,4-dihydroxytetrahydrofuran-2-yl)methyl ((S)-2-((3-cyano-5-fluorobenzyl)oxy)icosyl) hydrogen phosphate] | 249 | 82 | 183
5 | CCCCCCCCCCCCCCCCCCOC[C@H](COP(=O)(O)OC[C@@]1(C#N)O[C@@H](c2ccc3c(N)ncnn23)[C@H](O)[C@@H]1O)OCc1ccc(C#N)c(Cl)c1 [Compound 7, ((2R,3S,4R,5S)-5-(4-aminopyrrolo[2,1-f][1,2,4]triazin-7-yl)-2-cyano-3,4-dihydroxytetrahydrofuran-2-yl)methyl ((R)-2-((3-chloro-4-cyanobenzyl)oxy)-3-(octadecyloxy)propyl) hydrogen phosphate] | 40 | 36 | 50
6 | CCCCCCCCCCCCCCCCCC[C@H](COP(=O)(O)OC[C@@]1(C#N)O[C@@H](c2ccc3c(N)ncnn23)[C@H](O)[C@@H]1O)OCc1cc(F)cc(C#N)c1 [Compound 84, ((2R,3S,4R,5S)-5-(4-aminopyrrolo[2,1-f][1,2,4]triazin-7-yl)-2-cyano-3,4-dihydroxytetrahydrofuran-2-yl)methyl ((R)-2-((3-cyano-5-fluorobenzyl)oxy)icosyl) hydrogen phosphate] | – | 9 | –
7 | CCCCCCCCCCCCCCCCCCOC[C@H](COP(=O)(O)OC[C@@]1(C#N)O[C@@H](c2ccc3c(N)ncnn23)[C@H](O)[C@@H]1O)OCc1cc(F)cc(C#N)c1 [Compound 1, ((2R,3S,4R,5S)-5-(4-aminopyrrolo[2,1-f][1,2,4]triazin-7-yl)-2-cyano-3,4-dihydroxytetrahydrofuran-2-yl)methyl ((R)-2-((3-cyano-5-fluorobenzyl)oxy)-3-(octadecyloxy)propyl) hydrogen phosphate] | 8 | 54 | 8
8 | CCCCCCCCCCCCCCCCC[C@@H](COP(=O)(O)OC[C@@]1(C#N)O[C@@H](c2ccc3c(N)ncnn23)[C@H](O)[C@@H]1O)OCc1cc(F)cc(C#N)c1 [Compound 74, ((2R,3S,4R)-5-(4-aminopyrrolo[2,1-f][1,2,4]triazin-7-yl)-2-cyano-3,4-dihydroxytetrahydrofuran-2-yl)methyl ((S)-2-((3-cyano-5-fluorobenzyl)oxy)nonadecyl) hydrogen phosphate] | 49 | 85 | 67
9 | CCCCCCCCCCCCCCCCCC[C@H](COP(=O)(O)OC[C@@]1(C#N)O[C@@H](c2ccc3c(N)ncnn23)[C@H](O)[C@@H]1O)OCc1cc(Cl)cc(C#N)c1 [Compound 81, ((2R,3S,4R,5S)-5-(4-aminopyrrolo[2,1-f][1,2,4]triazin-7-yl)-2-cyano-3,4-dihydroxytetrahydrofuran-2-yl)methyl ((R)-2-((3-chloro-5-cyanobenzyl)oxy)icosyl) hydrogen phosphate] | – | 83 | –
10 | CCCCCCCCCCCCCCCCC[C@H](COP(=O)(O)OC[C@@]1(C#N)O[C@@H](c2ccc3c(N)ncnn23)[C@H](O)[C@@H]1O)OCc1cc(Cl)cc(C#N)c1 [Compound 76, ((2R,3S,4R)-5-(4-aminopyrrolo[2,1-f][1,2,4]triazin-7-yl)-2-cyano-3,4-dihydroxytetrahydrofuran-2-yl)methyl ((R)-2-((3-chloro-5-cyanobenzyl)oxy)nonadecyl) hydrogen phosphate] | – | 113 | –
11 | CCCCCCCCCCCCCCCCOC[C@@H](COP(=O)(O)OC[C@@]1(C#N)O[C@@H](c2ccc3c(N)ncnn23)[C@H](O)[C@@H]1O)OCc1cc(F)cc(C#N)c1 [Compound 88, ((2R,3S,4R,5S)-5-(4-aminopyrrolo[2,1-f][1,2,4]triazin-7-yl)-2-cyano-3,4-dihydroxytetrahydrofuran-2-yl)methyl ((S)-2-((3-cyano-5-fluorobenzyl)oxy)-3-(hexadecyloxy)propyl) hydrogen phosphate] | – | 38 | –
12 | CCCCCCCCCCCCCCCCCCC[C@H](COP(=O)(O)OC[C@@]1(C#N)O[C@@H](c2ccc3c(N)ncnn23)[C@H](O)[C@@H]1O)OCc1cc(Cl)cc(C#N)c1 [Compound 82, ((2R,3S,4R,5S)-5-(4-aminopyrrolo[2,1-f][1,2,4]triazin-7-yl)-2-cyano-3,4-dihydroxytetrahydrofuran-2-yl)methyl ((R)-2-((3-chloro-5-cyanobenzyl)oxy)henicosyl) hydrogen phosphate] | – | 147 | –
